What was measured:
Type in all cases: in vivo
[1] = system: Beet Armyworm (Spodoptera exigua, LAPHEG); assay: Bioassays on Beet Armyworm (BAW), 128-well diet tray assay; conditions: Spodoptera exigua; Beet Armyworm; rating class; read-out: BAW
In short: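 Second-instar larvae, one to five per well, were placed on artificial diet surface-treated with 50 μg/cm^2 compound in 90:10 acetone-water, eight wells per treatment. Trays were held 5–7 days at 25 °C, 14:10 light-dark. Percent mortality per well was averaged over eight wells.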

[2] = system: Cabbage Looper (Trichoplusia ni, TRIPNI); assay: Bioassays on Cabbage Looper (CL), 128-well diet tray assay; conditions: Trichoplusia ni; Cabbage Looper; rating class; read-out: CL
In short: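 Diet tray, 2nd instar, 1–5 larvae/well; 50 μg/cm^2 compound surface-applied (acetone:water 90:10), dried; 8 wells/treatment; 25° C, 14:10 L:D, 5–7 d; % mortality, mean of 8 wells.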

[3] = system: Yellow Fever Mosquito (Aedes aegypti, AEDSAE); conditions: Yellow Fever Mosquito; rating class
In short: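 Rating-scale grades reflect larval mortality scored per well after 3 days at room temperature under non-evaporative lids. Larvae (~1 day old, hatched overnight in liver-powder water) were added to six daughter plates per compound, prepared from a 4000 ppm DMSO stock diluted in 90:10 water/acetone.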

Structure (SMILES)	pest or weed control at 50 µg/cm2 [1] [%]	pest or weed control at 50 µg/cm2 [2] [%]	YFM [3]
O=C(Nc1ccc(F)c(NC(=O)C(F)(F)C(F)F)c1F)c1cc(NC(=O)[C@H]2[C@H](c3ccc(Cl)c(Cl)c3)C2(Cl)Cl)ccc1Cl [F1414, 2-Chloro-5-((1R,3R)-2,2-dichloro-3-(3,4-dichlorophenyl)cyclopropane-1-carboxamido)-N-(2,4-difluoro-3-(2,2,3,3-tetrafluoropropanamido)phenyl)benzamide]	50 to 100	50 to 100	A (80–100)
N#CCC(=O)Nc1c(Cl)ccc(NC(=O)c2cc(NC(=O)[C@H]3[C@H](c4ccc(Cl)c(Cl)c4)C3(Cl)Cl)ccc2Cl)c1Cl [F1415, 2-Chloro-N-(2,4-dichloro-3-(2-cyanoacetamido)phenyl)-5-((1R,3R)-2,2-dichloro-3-(3,4-dichlorophenyl)cyclopropane-1-carboxamido)benzamide]	50 to 100	50 to 100	A (80–100)
O=C(Nc1c(F)ccc(NC(=O)c2cc(NC(=O)[C@H]3[C@H](c4ccc(Cl)c(Cl)c4)C3(Cl)Cl)ccc2Cl)c1F)c1ccco1 [F1416, N-(3-(2-Chloro-5-((1R,3R)-2,2-dichloro-3-(3,4-dichlorophenyl)cyclopropane-1-carboxamido)benzamido)-2,6-difluorophenyl)furan-2-carboxamide]	50 to 100	50 to 100	A (80–100)
O=C(CC1CC1)Nc1c(F)ccc(NC(=O)c2cc(NC(=O)[C@H]3[C@H](c4ccc(Cl)c(Cl)c4)C3(Cl)Cl)ccc2Cl)c1F [F1417, 2-Chloro-N-(3-(2-cyclopropylacetamido)-2,4-difluorophenyl)-5-((1R,3R)-2,2-dichloro-3-(3,4-dichlorophenyl)cyclopropane-1-carboxamido)benzamide]	50 to 100	50 to 100	A (80–100)
O=C(CC(F)(F)F)Nc1c(F)ccc(NC(=O)c2cc(NC(=O)[C@H]3[C@H](c4ccc(Cl)c(Cl)c4)C3(Cl)Cl)ccc2Cl)c1F [F1418, 2-Chloro-5-((1R,3R)-2,2-dichloro-3-(3,4-dichlorophenyl)cyclopropane-1-carboxamido)-N-(2,4-difluoro-3-(3,3,3-trifluoropropanamido)phenyl)benzamide]	50 to 100	50 to 100	A (80–100)
CCOCCC(=O)Nc1c(F)ccc(NC(=O)c2cc(NC(=O)[C@H]3[C@H](c4ccc(Cl)c(Cl)c4)C3(Cl)Cl)ccc2Cl)c1F [F1419, 2-Chloro-5-((1R,3R)-2,2-dichloro-3-(3,4-dichlorophenyl)cyclopropane-1-carboxamido)-N-(3-(3-ethoxypropanamido)-2,4-difluorophenyl)benzamide]	50 to 100	50 to 100	A (80–100)
O=C(Nc1ccc(F)c(NC(=O)C(F)F)c1F)c1cc(NC(=O)[C@H]2[C@H](c3cc(Cl)c(Cl)c(Cl)c3)C2(Cl)Cl)cc(F)c1F [F1437, 5-((1R,3R)-2,2-Dichloro-3-(3,4,5-trichlorophenyl)cyclopropane-1-carboxamido)-N-(3-(2,2-difluoroacetamido)-2,4-difluorophenyl)-2,3-difluorobenzamide]	50 to 100	50 to 100	A (80–100)
O=C(Nc1ccc(F)c(NC(=O)C(F)(F)F)c1F)c1cc(NC(=O)[C@H]2[C@H](c3cc(Cl)c(Cl)c(Cl)c3)C2(Cl)Cl)cc(F)c1F [F1438, 5-((1R,3R)-2,2-Dichloro-3-(3,4,5-trichlorophenyl)cyclopropane-1-carboxamido)-N-(2,4-difluoro-3-(2,2,2-trifluoroacetamido)phenyl)-2,3-difluorobenzamide]	50 to 100	50 to 100	A (80–100)
CC(=O)Nc1c(F)ccc(NC(=O)c2cc(NC(=O)[C@H]3[C@H](c4cc(Cl)cc(Cl)c4)C3(Cl)Cl)cc(F)c2F)c1F [F1439, N-(3-Acetamido-2,4-difluorophenyl)-5-((1R,3R)-2,2-dichloro-3-(3,5-dichlorophenyl)cyclopropane-1-carboxamido)-2,3-difluorobenzamide]	50 to 100	50 to 100	A (80–100)
O=C(Nc1ccc(F)c(NC(=O)C(F)F)c1F)c1cc(NC(=O)[C@H]2[C@H](c3cc(Cl)cc(Cl)c3)C2(Cl)Cl)cc(F)c1F [F1440, 5-((1R,3R)-2,2-Dichloro-3-(3,5-dichlorophenyl)cyclopropane-1-carboxamido)-N-(3-(2,2-difluoroacetamido)-2,4-difluorophenyl)-2,3-difluorobenzamide]	50 to 100	50 to 100	A (80–100)
O=C(Nc1ccc(F)c(NC(=O)C(F)(F)F)c1F)c1cc(NC(=O)[C@H]2[C@H](c3cc(Cl)cc(Cl)c3)C2(Cl)Cl)cc(F)c1F [F1441, 5-((1R,3R)-2,2-Dichloro-3-(3,5-dichlorophenyl)cyclopropane-1-carboxamido)-N-(2,4-difluoro-3-(2,2,2-trifluoroacetamido)phenyl)-2,3-difluorobenzamide]	50 to 100	50 to 100	A (80–100)
CC(=O)Nc1c(F)ccc(NC(=O)c2cc(NC(=O)[C@H]3[C@H](c4ccc(Cl)c(Cl)c4)C3(Cl)Cl)cc(F)c2F)c1F [F1442, N-(3-Acetamido-2,4-difluorophenyl)-5-((1R,3R)-2,2-dichloro-3-(3,4-dichlorophenyl)cyclopropane-1-carboxamido)-2,3-difluorobenzamide]	50 to 100	50 to 100	A (80–100)
O=C(Nc1ccc(F)c(NC(=O)C(F)F)c1F)c1cc(NC(=O)[C@H]2[C@H](c3ccc(Cl)c(Cl)c3)C2(Cl)Cl)cc(F)c1F [F1443, 5-((1R,3R)-2,2-Dichloro-3-(3,4-dichlorophenyl)cyclopropane-1-carboxamido)-N-(3-(2,2-difluoroacetamido)-2,4-difluorophenyl)-2,3-difluorobenzamide]	50 to 100	50 to 100	A (80–100)
O=C(Nc1ccc(F)c(NC(=O)C(F)(F)F)c1F)c1cc(NC(=O)[C@H]2[C@H](c3ccc(Cl)c(Cl)c3)C2(Cl)Cl)cc(F)c1F [F1444, 5-((1R,3R)-2,2-Dichloro-3-(3,4-dichlorophenyl)cyclopropane-1-carboxamido)-N-(2,4-difluoro-3-(2,2,2-trifluoroacetamido)phenyl)-2,3-difluorobenzamide]	50 to 100	50 to 100	A (80–100)
O=C(Nc1ccc(F)c(NC(=O)C(F)F)c1F)c1cccc(NC(=O)[C@H]2[C@H](c3ccc(Cl)c(Cl)c3)C2(Cl)Cl)c1 [F1447, 3-((1R,3R)-2,2-Dichloro-3-(3,4-dichlorophenyl)cyclopropane-1-carboxamido)-N-(3-(2,2-difluoroacetamido)-2,4-difluorophenyl)benzamide]	50 to 100	50 to 100	A (80–100)
Cc1c(N)cccc1NC(=O)c1cc(NC(=O)[C@H]2[C@H](c3ccc(F)c(C(F)(F)F)c3)C2(Cl)Cl)ccc1Cl [F1448, N-(3-Amino-2-methylphenyl)-2-chloro-5-((1R,3R)-2,2-dichloro-3-(4-fluoro-3-(trifluoromethyl)phenyl)cyclopropane-1-carboxamido)benzamide]	50 to 100	50 to 100	A (80–100)
O=C(Nc1ccc(F)c(NC(=O)C(F)(F)C(F)(F)C(F)(F)F)c1F)c1cc(NC(=O)[C@H]2[C@H](c3ccc(F)c(C(F)(F)F)c3)C2(Cl)Cl)ccc1Cl [F1450, 2-Chloro-5-((1R,3R)-2,2-dichloro-3-(4-fluoro-3-(trifluoromethyl)phenyl)cyclopropane-1-carboxamido)-N-(2,4-difluoro-3-(2,2,3,3,4,4,4-heptafluorobutanamido)phenyl)benzamide]	50 to 100	50 to 100	A (80–100)
Cc1c(NC(=O)c2cc(NC(=O)[C@H]3[C@H](c4ccc(F)c(C(F)(F)F)c4)C3(Cl)Cl)ccc2Cl)cccc1NC(=O)C(F)(F)F [F1451, 2-Chloro-5-((1R,3R)-2,2-dichloro-3-(4-fluoro-3-(trifluoromethyl)phenyl)cyclopropane-1-carboxamido)-N-(2-methyl-3-(2,2,2-trifluoroacetamido)phenyl)benzamide]	50 to 100	50 to 100	A (80–100)
CCN(C(=O)C(F)F)c1c(F)ccc(NC(=O)c2cc(NC(=O)[C@H]3[C@H](c4ccc(F)c(C(F)(F)F)c4)C3(Cl)Cl)ccc2Cl)c1F [F1452, 2-Chloro-5-((1R,3R)-2,2-dichloro-3-(4-fluoro-3-(trifluoromethyl)phenyl)cyclopropane-1-carboxamido)-N-(3-(N-ethyl-2,2-difluoroacetamido)-2,4-difluorophenyl)benzamide]	50 to 100	50 to 100	A (80–100)
CC(=O)Nc1ccc(F)c(NC(=O)c2cc(NC(=O)[C@H]3[C@H](c4ccc(F)c(C(F)(F)F)c4)C3(Cl)Cl)ccc2Cl)c1F [F1454, N-(3-Acetamido-2,6-difluorophenyl)-2-chloro-5-((1R,3R)-2,2-dichloro-3-(4-fluoro-3-(trifluoromethyl)phenyl)cyclopropane-1-carboxamido)benzamide]	50 to 100	50 to 100	A (80–100)

— patent US20250228239A1, “MOLECULES HAVING PESTICIDAL UTILITY, AND INTERMEDIATES, COMPOSITIONS, AND PROCESSES, RELATED THERETO” (priority 2024, published 2025)
